Consider two molecules from publication PMC11538350, “Synthetic studies on the tetrasubstituted D-ring of cystobactamids lead to potent terephthalic acid antibiotics” (Communications Chemistry, 2024).

The test system of one series is ESKAPE strains. The experiment in a line: MIC-assays on a panel of representative ESKAPE strains, summary in words. It is filed as cell-based. As to conditions: summary of the MIC tables. How it is done: All cystobactamids were evaluated in MIC-assays on a panel of representative ESKAPE strains with focus on A. baumannii (Tables 1 and 2). Compared to our previous work[10],[17],[18], we specifically included more challenging test strains with known resistances against gyrase inhibitors.
2.1 Materials and Methods
Strains were cultivated according to standard procedures. Bacterial cryo-cultures were
resuspended into fresh MHBII (cation adjusted) medium. The resuspension
assay plate (Corning, #3788).
in parallel as a positive control. […]

The conditions of series [1]: for T1/2 PLASMA (H): human plasma; for T1/2 PLASMA (M): mouse plasma. How it is done:
2.1 Materials and Methods […]
Determination of in vitro ADME properties
7, 8, 11 and 42. All samples were analysed via HPLC -MS/MS.
HPLC-MS/MS analysis of cystobactamids
AB Sciex QTrap 6500plus mass spectrometer. LC conditions were as follows: column:
Samples were run under acidic
For plasma stability experiments, samples were procured from commercial sources.
Human plasma was obtained from Antibodies-online (catalog no. ABIN5706569), and mouse plasma was obtained from Tebubio (catalog no. D408-04-0050).
The methods were performed in accordance with relevant guidelines and regulations and approved by the Helmholtz Centre for Infection Research. […]

The test system of the next series is E. faec. DSM-17050 (VRE). The experiment in a line: MIC assay. It is filed as cell-based, Enterococcus faecium. In a few lines:
(§1)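 Broth MIC in cation-adjusted MHBII; inocula from cryo-cultures resuspended in fresh medium. Max DMSO 1%, positive control run in parallel. Panel includes strains with known gyrase-inhibitor resistance.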

The nature of series [2]: metabolic stability assay, human microsomes. As to conditions: second microsome column of Table S4, head prints (M); mouse and human microsomes.
Another series has as its system E. ae. CIP 106754. Nature of the series: MIC assay. It counts as cell-based, Enterobacter aerogenes. As to conditions: Klebsiella aerogenes, CIP106754, read-out: MIC E. ae. CIP 106754. In a few lines: as §1
Series [3] is described as follows: PK study in mice after intravenous administration. It counts as in vivo, CD-1 mice. As to conditions: male, plasma. As for the experimental part:
and approved by the Helmholtz Centre for Infection Research.
Germany), 4-weeks-old, were used. The animal studies were conducted in accordance […]
Verbraucherschutz und Lebensmittelsicherheit, Oldenburg, Germany.
Then, plasma was transferred into a new Eppendorf tube and stored at -80°C until analysis.
Bioanalysis of pharmacokinetic and pharmacodynamic samples […]
mouse plasma from CD-1 mice. Glipizide was used as an internal standard. In addition, […]
mixer. […] Supernatants were […]
transferred to standard HPLC-glass vials. Samples were analyzed using LC-MS/MS conditions as described above. Peaks of PK samples were quantified using the calibration curve using AB Sciex Multiquant Software 3.0. The accuracy of the calibration curve was determined using QCs independently prepared. PK parameters were determined using a non-compartmental analysis with PKSolver.23
Figure S1: Plasma concentration curves for cystobactamid 42. Error bars were determined via standard deviation of two cassette experiments per compound (n=2). […]
(1 picture or pasted object on this page, not shown here)

Series [4] is described as follows: metabolic stability assay, mouse microsomes. As to conditions: Table S4.
A further series deals with E. coli ATCC-25922. Nature of the series: MIC assay. It is filed as cell-based. As to conditions: Escherichia coli. An outline of the steps:
as §1

Another series concerns A. baum. R835. The experiment in a line: MIC assay. It is filed as cell-based. An outline of the steps:
as §1

In the next series the test system is A. baum. CIP-107292. The experiment in a line: MIC assay. It counts as cell-based. An outline of the steps: as §1
A further series deals with E. coli LM705. Nature of the series: MIC assay. As to conditions: Escherichia coli, LM705, read-out: MIC E. coli LM705. It counts as cell-based. An outline of the steps: as §1
For a further series, the system named is K. pneum. CIP-104298. Nature of the series: MIC assay. It is filed as cell-based. As to conditions: Klebsiella pneumoniae. An outline of the steps:
as §1

A further series concerns E. cloacae ATCC BAA-2468. The experiment in a line: MIC assay. It is filed as cell-based. In a few lines: as §1
In another series the test system is K. pneum. KP10581. Nature of the series: MIC assay. It counts as cell-based. An outline of the steps: as §1
Another series deals with A. baum. DSM-30008. The experiment in a line: MIC assay. It counts as cell-based. As to conditions: Acinetobacter baumannii. In a few lines: as §1
The subject of the next series is S. aur. ATCC-29213. Nature of the series: MIC assay. It is filed as cell-based. As to conditions: Staphylococcus aureus. In a few lines:
as §1

In the next series the test system is K. pneum. R-1525. Nature of the series: MIC assay. It counts as cell-based. An outline of the steps: as §1
The subject of series [5] is S. pneum. DSM-11865 (PRSP). Nature of the series: MIC assay. It is filed as cell-based. In a few lines:
as §1

The next series has as its system P. ae. PA14. Nature of the series: MIC assay. It counts as cell-based. As to conditions: Pseudomonas aeruginosa. An outline of the steps: as §1
The next series relates to A. baum. CIP-105742. The experiment in a line: MIC assay. It counts as cell-based. An outline of the steps: as §1
A further series concerns A. baum. ATCC BAA-1710. Nature of the series: MIC assay. It is filed as cell-based. In a few lines: as §1
For another series, the system named is P. ae. PA14ΔmexAB. Nature of the series: MIC assay. It is filed as cell-based. As to conditions: Pseudomonas aeruginosa, read-out: MIC P. ae. PA14ΔmexAB. In a few lines: as §1

The structures appear in SMILES notation. In brackets after ≈: the same amount, converted by molar mass. Read-outs that look alike come from different tables or passages of the source.

The term MIC denotes the smallest concentration in the dilution series that meets the test's criterion for growth inhibition. For orientation: clearance means a measure of how efficiently the substance is removed, as volume per time. A high value points to efficient removal. One may read the AUC(0-t) as the area under the concentration-time curve up to a stated or last time point. A lower AUC(0-t) goes with less exposure. The half-life is the time in which the quantity being followed falls by half. Higher therefore signals slow loss. For the molecule `C#CC[C@H](NC(=O)c1ccc(NC(=O)c2ccc(C#N)cc2)cc1)C(=O)Nc1ccc(NC(=O)c2ccc(C(=O)Nc3ccc(C(=O)O)cc3)c(O)c2OC(C)C)cc1` [Cmpd. 42], the “antibacterial activity on the pathogen panel, in words” value with ESKAPE strains is recorded as “exceptional activity”. Moreover, the “T1/2 PLASMA (H)” value in series [1] is > 4 h. In addition, the “T1/2 PLASMA (M)” value in [1] was > 4 h. Further, the MIC with E. faec. DSM-17050 (VRE) (Enterococcus, read-out: MIC E. faec. DSM-17050 (VRE)) is < 0.03 µg/mL; in the series on E. ae. CIP 106754, 1 µg/mL (≈ 1.26 µM); in the series with E. coli ATCC-25922 (ATCC25922, read-out: MIC E. coli ATCC-25922), < 0.03 µg/mL; with A. baum. R835 (Acinetobacter baumannii, read-out: MIC A. baum. R835), 0.5 µg/mL (≈ 0.631 µM); in the series on A. baum. CIP-107292 (Acinetobacter baumannii, CIP107292, read-out: MIC A. baum. CIP-107292), 0.05 µg/mL (≈ 0.0631 µM); in the series with E. coli LM705, 0.06 µg/mL (≈ 0.0757 µM). Further, the MIC in the series on K. pneum. CIP-104298 (CIP104298, read-out: MIC K. pneum. CIP-104298) was < 0.03 µg/mL; in the series on E. cloacae ATCC BAA-2468 (Enterobacter cloacae, ATCCBAA2468, read-out: MIC E. cloacae ATCC BAA-2468), 0.25 µg/mL (≈ 0.315 µM); in the series with K. pneum. KP10581 (Klebsiella pneumoniae, read-out: MIC K. pneum. KP10581) it was < 0.03 µg/mL; in the series on A. baum. DSM-30008 (DSM30008, read-out: MIC A. baum. DSM-30008) it was 0.125 µg/mL (≈ 0.158 µM); with S. aur. ATCC-29213 (ATCC29213, read-out: MIC S. aur. ATCC-29213) it was 0.06 µg/mL (≈ 0.0757 µM); with K. pneum. R-1525 (Klebsiella pneumoniae, read-out: MIC K. pneum. R-1525) it was < 0.03 µg/mL. The MIC was < 0.03 µg/mL in [5] (Streptococcus pneumoniae, read-out: MIC S. pneum. DSM-11865 (PRSP)); 4 µg/mL (≈ 5.05 µM) with P. ae. PA14 (PA14, read-out: MIC P. ae. PA14); < 0.03 µg/mL in the series on A. baum. CIP-105742 (Acinetobacter baumannii, CIP105742, read-out: MIC A. baum. CIP-105742); 0.03 to 0.05 µg/mL (≈ 0.0378 to 0.0631 µM) in the series on A. baum. ATCC BAA-1710 (Acinetobacter baumannii, ATCCBAA1710, read-out: MIC A. baum. ATCC BAA-1710); < 0.03 µg/mL in the series on P. ae. PA14ΔmexAB. Also, the “T1/2 MICROSOMES (M)” value in series [2] and in series [4] was > 1 h each time. This molecule also registered a clearance in [3] (CD-1, mouse, iv, 1 mg/kg) of 17.9 ± 12.3 mL/min/kg. Further, the C0 in series [3] (CD-1, mouse, iv, 1 mg/kg, concentration at t = 0 h, CD-1 mice, 1 mg/kg IV) was ~2200 ng/mL. For the same molecule, the Vd in series [3] (CD-1, mouse, iv, 1 mg/kg, volume of distribution, CD-1 mice, 1 mg/kg IV, read-out: Vz) was ~1.4 L/kg. The same molecule returned an AUC(0-t) in series [3] (mouse, CD-1 mice, 1 mg/kg IV) of 1210 ± 832 ng·h/mL. This molecule showed a half-life in [3] (mouse, CD-1 mice, 1 mg/kg IV) of 0.88 ± 0.1 h.
`C#CC[C@H](NC(=O)c1ccc(NC(=O)c2ccc(C#N)cc2)cc1)C(=O)Nc1ccc(C(=O)Nc2ccc(C(=O)Nc3ccc(C(=O)O)cc3)c(O)c2CC(C)C)cc1` [Cmpd. 11]: in series [1], the “T1/2 PLASMA (H)” value is > 4 h. Moreover, the “T1/2 PLASMA (M)” value in series [1] was > 4 h. In addition, the MIC in the series on E. faec. DSM-17050 (VRE) (Enterococcus; read-out: MIC E. faec. DSM-17050 (VRE)) was < 0.03 µg/mL; in the series with E. ae. CIP 106754, > 64 µg/mL; in the series on E. coli ATCC-25922 (ATCC25922, reference strain, read-out: MIC E. coli ATCC-25922), < 0.03 µg/mL; with A. baum. R835 (Acinetobacter baumannii; read-out: MIC A. baum. R835), > 64 µg/mL; with A. baum. CIP-107292 (Acinetobacter baumannii, CIP107292; read-out: MIC A. baum. CIP-107292) it was > 64 µg/mL; in the series with E. coli LM705, > 64 µg/mL. Moreover, the MIC is > 64 µg/mL in the series on K. pneum. CIP-104298 (CIP104298, reference strain, read-out: MIC K. pneum. CIP-104298); > 64 µg/mL with E. cloacae ATCC BAA-2468 (Enterobacter cloacae, ATCCBAA2468; read-out: MIC E. cloacae ATCC BAA-2468); 8 µg/mL (≈ 10.1 µM) in the series on K. pneum. KP10581 (Klebsiella pneumoniae; read-out: MIC K. pneum. KP10581); 1 µg/mL (≈ 1.26 µM) with A. baum. DSM-30008 (DSM30008, reference strain, read-out: MIC A. baum. DSM-30008); 16 to 32 µg/mL (≈ 20.2 to 40.5 µM) in the series on S. aur. ATCC-29213 (ATCC29213, reference strain, read-out: MIC S. aur. ATCC-29213); > 64 µg/mL with K. pneum. R-1525 (Klebsiella pneumoniae; read-out: MIC K. pneum. R-1525). The MIC is > 64 µg/mL in series [5] (Streptococcus pneumoniae; read-out: MIC S. pneum. DSM-11865 (PRSP)); > 64 µg/mL with P. ae. PA14 (PA14, reference strain, read-out: MIC P. ae. PA14); < 0.03 µg/mL in the series on A. baum. CIP-105742 (Acinetobacter baumannii, CIP105742; read-out: MIC A. baum. CIP-105742); 0.25 µg/mL (≈ 0.316 µM) with A. baum. ATCC BAA-1710 (Acinetobacter baumannii, ATCCBAA1710; read-out: MIC A. baum. ATCC BAA-1710); > 64 µg/mL in the series with P. ae. PA14ΔmexAB. The “T1/2 MICROSOMES (M)” value in series [2] and in series [4] was > 1 h throughout.
